What was measured:
Format in all cases: physicochemical
[1] = Specific powder surface area by nitrogen gas sorption (BET); conditions: triplicate, trihydrate
Description: Specific powder surface area was determined using nitrogen gas sorption (Smartsorb, Smart Instruments, Mumbai, India). Prior to measurements, samples were regenerated by degassing to remove moisture and contamination. The regenerated sample was dipped in liquid nitrogen and the quantity of the adsorbed gas was measured using a thermal conductivity detector and subsequently integrated using an electronic circuit in terms of counts. The instrument was calibrated by injecting a known quantity of nitrogen. The measured parameters were subsequently used to calculate the surface area of the sample by employing the adsorption theories of Brunauer, Emmett and Teller (BET).
(§1) Parameters operated were: • Augar Speed: 5-90 rpm • Primary Air Pressure: 2-8 kg·cm^−2 • Secondary Air Pressure: 4-10 kg·cm^−2 The surface area (in triplicate), average particle size and contact angle (in quadruplicate) were determined as outlined in the General section. The purity of the amoxicillin trihydrate samples was 99.4±0.3% and were void of dichloromethane, isopropanol, pivalic acid and triethyl amine.

[2] = Particle size distribution by laser diffraction (Malvern); conditions: trihydrate
Description: Particle size distribution values D10, D50, D90 and D100 were determined using laser diffraction applying Malvern equipment. A suitable apparatus for determining D10, D50, D90 and D100 is a Malvern particle sizer 2600 C or a Malvern Zeta Sizer.
as §1

[3] = Contact angle by sessile drop method (water); conditions: ambient conditions, trihydrate
Description: Contact angles of amoxicillin trihydrate powder samples were measured by the sessile drop method using an Drop Shape Analyzer instrument (FTA 1000, First Ten Angstrom, Virginia, USA). Powder samples were mounted on double sided adhesive tape adhered to a glass slide and excess powder was removed by tapping the slide. A drop of probe liquid (water) was dispersed onto the sample surface and video images were captured by the FTA image analyzer. The contact angle was calculated by the instrument by fitting a mathematical expression to the shape of the drop followed by calculating the slope of the tangent to the drop at the liquid-solid-vapor interface line. The surface tension of ultrapure ELGA laboratory water was measured to be 73±0.5 mN·m^−1 at 25° C. All measurements were performed in air under ambient conditions and an average of four measurements was reported in the below Examples.
as §1

[4] = Powder dissolution, USP/NF paddle method with HPLC analysis; conditions: 500 mg in 900 mL water, 37 °C, 75 rpm; for Amoxicillin released in solution Mean: mean of 3; for Amoxicillin released in solution #1: replicate #1; for Amoxicillin released in solution #2: replicate #2; for Amoxicillin released in solution #3: replicate #3
Description: Dissolution analysis of amoxicillin trihydrate powder samples was carried out using the USP/NF paddle method at a rotational speed of 75 rpm. Ultrapure ELGA laboratory water (900 mL) was used as dissolution medium. Media were equilibrated to 37.0±0.5° C. prior to dissolution. Amoxicillin trihydrate sample powder (500 mg) was directly added to the dissolution apparatus (Electrolab USP-24, India). Samples were collected at 0, 1, 3, 5, 10, 15, 30, 60 and 90 min, filtered through 0.2 μm filters and analyzed by HPLC. Dissolution profiles were constructed by plotting the percentage amoxicillin released against time.
The HPLC system (Shimadzu Corporation, Kyoto, Japan) comprised of an SCL-10A VP system controller, LC-10AT VP liquid chromatograph, FCV-10AL VP flow control valve, DGU-14A degasser, SIL-10AD VP auto-injector, CTO-10AS VP column oven, SPD-M20A prominence diode array (PDA) detector and data acquisition Class-VP 6.10 software. The HPLC method was adopted from the United States Pharmacopoeia (USP). The method was validated for linearity, precision, accuracy and intra- and inter-day variability. The mobile phase was 50 mM monobasic potassium phosphate:methanol (96:4, v/v, pH 5.0). All analyses were carried out using Lichrospher® 100 RP-18e analytical column (5 μm, Merck KGaA, Darmstadt, Germany) under isocratic conditions at a flow rate of 1.0 mL·min^−1 at 25° C. with 20 μL injection volume. Effluent was monitored at a wavelength of 230 nm. Samples for calibration curve generation were prepared in 50 mM monobasic potassium phosphate:methanol 1:1 (v/v) proportion at a concentration range of 1 to 600 μg·mL^−1.
The three non-micronized (i.e. entries 1-3 of Table 1) and micronized (i.e. entries 4-6 of Table 1) amoxicillin trihydrate samples of Example 1 were subjected to a powder dissolution test (in triplicate) as outlined in the General section.

## CC1(C)S[C@@H]2[C@H](NC(=O)[C@H](N)c3ccc(O)cc3)C(=O)N2[C@H]1C(=O)O.O.O.O [entry 5, amoxicillin trihydrate]
[1]
  Surface Area Mean ± SD (n = 3): 2.03 ± 0.15 m^2 · g^−1
[2]
  Average Particle Size D10: 1.9 μm
  Average Particle Size D50: 10.0 μm
  Average Particle Size D90: 22.5 μm
  Average Particle Size D100: 44.3 μm
[3]
  Contact Angle Mean ± SD (n = 4): 97.89 ± 1.22
[4]; 0 min
  Amoxicillin released in solution Mean: 0%
  Amoxicillin released in solution #1: 0%
  Amoxicillin released in solution #2: 0%
  Amoxicillin released in solution #3: 0%
[4]; 1 min, trihydrate
  Amoxicillin released in solution Mean: 59.93%
  Amoxicillin released in solution #1: 58.56%
  Amoxicillin released in solution #2: 62.91%
  Amoxicillin released in solution #3: 58.32%
[4]; 3 min, trihydrate
  Amoxicillin released in solution Mean: 77.98%
  Amoxicillin released in solution #1: 78.61%
  Amoxicillin released in solution #2: 80.12%
  Amoxicillin released in solution #3: 75.20%
[4]; 5 min, trihydrate
  Amoxicillin released in solution Mean: 82.14%
  Amoxicillin released in solution #1: 83.91%
  Amoxicillin released in solution #2: 82.77%
  Amoxicillin released in solution #3: 79.73%
[4]; 10 min, trihydrate
  Amoxicillin released in solution Mean: 86.84%
  Amoxicillin released in solution #1: 89.18%
  Amoxicillin released in solution #2: 88.59%
  Amoxicillin released in solution #3: 82.76%
[4]; 15 min, trihydrate
  Amoxicillin released in solution Mean: 89.32%
  Amoxicillin released in solution #1: 90.98%
  Amoxicillin released in solution #2: 92.05%
  Amoxicillin released in solution #3: 84.94%
[4]; 30 min, trihydrate
  Amoxicillin released in solution Mean: 96.72%
  Amoxicillin released in solution #1: 94.78%
  Amoxicillin released in solution #2: 99.20%
  Amoxicillin released in solution #3: 96.17%
[4]; 60 min, trihydrate
  Amoxicillin released in solution Mean: 97.60%
  Amoxicillin released in solution #1: 97.29%
  Amoxicillin released in solution #2: 99.86%
  Amoxicillin released in solution #3: 95.65%
[4]; 90 min, trihydrate
  Amoxicillin released in solution Mean: 99.15%
  Amoxicillin released in solution #1: 99.33%
  Amoxicillin released in solution #2: 99.64%
  Amoxicillin released in solution #3: 98.47%

## CC1(C)S[C@@H]2[C@H](NC(=O)[C@H](N)c3ccc(O)cc3)C(=O)N2[C@H]1C(=O)O.O.O.O [entry 6, amoxicillin trihydrate]
[1]
  Surface Area Mean ± SD (n = 3): 1.69 ± 0.07 m^2 · g^−1
[2]
  Average Particle Size D10: 1.9 μm
  Average Particle Size D50: 10.0 μm
  Average Particle Size D90: 22.4 μm
  Average Particle Size D100: 38.9 μm
[3]
  Contact Angle Mean ± SD (n = 4): 107.84 ± 1.72
[4]; 0 min
  Amoxicillin released in solution Mean: 0%
  Amoxicillin released in solution #1: 0%
  Amoxicillin released in solution #2: 0%
  Amoxicillin released in solution #3: 0%
[4]; 1 min, trihydrate
  Amoxicillin released in solution Mean: 70.68%
  Amoxicillin released in solution #1: 70.98%
  Amoxicillin released in solution #2: 72.37%
  Amoxicillin released in solution #3: 68.67%
[4]; 3 min, trihydrate
  Amoxicillin released in solution Mean: 79.56%
  Amoxicillin released in solution #1: 82.73%
  Amoxicillin released in solution #2: 76.25%
  Amoxicillin released in solution #3: 79.68%
[4]; 5 min, trihydrate
  Amoxicillin released in solution Mean: 82.60%
  Amoxicillin released in solution #1: 84.40%
  Amoxicillin released in solution #2: 78.46%
  Amoxicillin released in solution #3: 84.94%
[4]; 10 min, trihydrate
  Amoxicillin released in solution Mean: 85.67%
  Amoxicillin released in solution #1: 85.63%
  Amoxicillin released in solution #2: 82.85%
  Amoxicillin released in solution #3: 88.53%
[4]; 15 min, trihydrate
  Amoxicillin released in solution Mean: 88.11%
  Amoxicillin released in solution #1: 87.94%
  Amoxicillin released in solution #2: 85.45%
  Amoxicillin released in solution #3: 90.95%
[4]; 30 min, trihydrate
  Amoxicillin released in solution Mean: 96.85%
  Amoxicillin released in solution #1: 96.08%
  Amoxicillin released in solution #2: 96.66%
  Amoxicillin released in solution #3: 97.81%
[4]; 60 min, trihydrate
  Amoxicillin released in solution Mean: 99.37%
  Amoxicillin released in solution #1: 99.56%
  Amoxicillin released in solution #2: 98.85%
  Amoxicillin released in solution #3: 99.69%
[4]; 90 min, trihydrate
  Amoxicillin released in solution Mean: 98.76%
  Amoxicillin released in solution #1: 97.01%
  Amoxicillin released in solution #2: 99.48%
  Amoxicillin released in solution #3: 99.78%

From patent US9820943B2, “Micronized amoxicillin” (DSM SINOCHEM PHARMACEUTICALS NETHERLANDS B.V., priority 2013, dated 2017)
